Reference: patent US20100256107A1, “PREPARATION COMPOSITION” (Dainippon Sumitomo Pharma Co., Ltd., priority 2007, published 2010)

Legend:
[1] = Stability in an aqueous solution formulation containing sodium carbonate (HPLC); assay type: physicochemical
Protocol: Multiple vials were prepared, and Compound A and sodium carbonate in amounts indicated in Table 9 were weighed and put in each vial. A physiological saline (100 ml) was added to each vial, amounts Compound A and its degradation, Compounds B and C were measured just after dissolving and after preserving for 6 hours at 25° C.
HPLC was Measured Under the Same Conditions as Test Example 1.
The numbers described in columns of “just after dissolution” and “after preservation for 6 hours at 25° C.” on Table 10 show area % per total peaks which appear until 55 minutes under the above HPLC conditions.

[2] = Control of coloration in an aqueous solution formulation containing sodium carbonate (absorbance 380 nm); assay type: physicochemical; details: for change in absorbance, just after dissolution / change in absorbance, preservation time 1 hr / change in absorbance, preservation time 2 hr / change in absorbance, preservation time 3 hr / change in absorbance, preservation time 4 hr / change in absorbance, preservation time 5 hr / change in absorbance, preservation time 6 hr: 25° C., 380 nm
Protocol: Multiple vials were prepared, and sodium carbonate, Compound A and imipenem in amounts indicated in Table 14 were weighed, respectively and each mixture was put in each vial. A physiological saline (100 ml) was added to each vial to be dissolved. Coloration (change of color) just after dissolution and when the solution was preserved at one hour intervals for 6 hours at 25° C. were measured by absorbency on Compound A and imipenem.
• Condition of measurement by spectrophotometer • cell: quartz 12.5 mm×12.5 mm×45 mm, capacity 3.5 ml • wavelength: 380 nm • measurement temperature: 25° C. • instrument: UV-2200A (Shimadzu)
The numbers described in columns of “just after dissolution” and each “preservation time” on Table 15 show values of change in absorbance just after dissolution when measured under the above conditions.

[3] = Comp. A 0.5 g/vial + sodium carbonate 0.0 mg/vial in physiological saline 100 ml
[4] = Comp. A 0.5 g/vial + sodium carbonate 1.0 mg/vial in physiological saline 100 ml
[5] = Comp. A 0.5 g/vial + sodium carbonate 1.5 mg/vial in physiological saline 100 ml
[6] = Comp. A 0.5 g/vial + sodium carbonate 2.0 mg/vial in physiological saline 100 ml
[7] = Comp. A 0.5 g/vial + sodium carbonate 2.5 mg/vial in physiological saline 100 ml
[8] = Comp. A 0.5 g/vial + sodium carbonate 3.0 mg/vial in physiological saline 100 ml
[9] = Comp. A 0.5 g/vial + sodium carbonate 3.5 mg/vial in physiological saline 100 ml
[10] = Comp. A 0.5 g/vial + sodium carbonate 4.0 mg/vial in physiological saline 100 ml
[11] = Comp. A 0.5 g/vial + sodium carbonate 5.0 mg/vial in physiological saline 100 ml
[12] = 0.5 g/vial + sodium carbonate 0.0 mg/vial in physiological saline 100 ml
[13] = 0.5 g/vial + sodium carbonate 1.0 mg/vial in physiological saline 100 ml
[14] = 0.5 g/vial + sodium carbonate 1.5 mg/vial in physiological saline 100 ml
[15] = 0.5 g/vial + sodium carbonate 2.0 mg/vial in physiological saline 100 ml
[16] = 0.5 g/vial + sodium carbonate 2.5 mg/vial in physiological saline 100 ml
[17] = 0.5 g/vial + sodium carbonate 3.0 mg/vial in physiological saline 100 ml

Comp. A after preservation for 6 hrs. 25° C. [1, 3]: 96.3 area % | Comp. A just after dissolution [1, 3]: 99.0 area % | Comp. B after preservation for 6 hrs. 25° C. [1, 3]: 2.6 area % | Comp. B just after dissolution [1, 3]: 0.5 area % | Comp. C after preservation for 6 hrs. 25° C. [1, 3]: 0.4 area % | Comp. C just after dissolution [1, 3]: 0.0 area % | Comp. A after preservation for 6 hrs. 25° C. [1, 4]: 96.7 area % | Comp. A just after dissolution [1, 4]: 99.0 area % | Comp. B after preservation for 6 hrs. 25° C. [1, 4]: 2.6 area % | Comp. B just after dissolution [1, 4]: 0.6 area % | Comp. C after preservation for 6 hrs. 25° C. [1, 4]: 0.2 area % | Comp. C just after dissolution [1, 4]: 0.0 area % | Comp. A after preservation for 6 hrs. 25° C. [1, 5]: 96.5 area % | Comp. A just after dissolution [1, 5]: 98.9 area % | Comp. B after preservation for 6 hrs. 25° C. [1, 5]: 2.8 area % | Comp. B just after dissolution [1, 5]: 0.5 area % | Comp. C after preservation for 6 hrs. 25° C. [1, 5]: ≤ 0.1 area % | Comp. C just after dissolution [1, 5]: 0.0 area % | Comp. C after preservation for 6 hrs. 25° C. ([1]; Comp. A 0.5 g/vial + sodium carbonate 1.5 mg/vial in physiological saline 100 ml, listed as Comp. A): 0.0 area % | Comp. A after preservation for 6 hrs. 25° C. [1, 6]: 96.2 area % | Comp. A just after dissolution [1, 6]: 99.0 area % | Comp. B after preservation for 6 hrs. 25° C. [1, 6]: 3.0 area % | Comp. B just after dissolution [1, 6]: 0.5 area % | Comp. C after preservation for 6 hrs. 25° C. [1, 6]: 0.0 area % | Comp. C just after dissolution [1, 6]: 0.0 area % | Comp. A after preservation for 6 hrs. 25° C. [1, 7]: 96.0 area % | Comp. A just after dissolution [1, 7]: 98.9 area % | Comp. B after preservation for 6 hrs. 25° C. [1, 7]: 3.2 area % | Comp. B just after dissolution [1, 7]: 0.5 area % | Comp. C after preservation for 6 hrs. 25° C. [1, 7]: 0.0 area % | Comp. C just after dissolution [1, 7]: 0.0 area % | Comp. A after preservation for 6 hrs. 25° C. [1, 8]: 95.7 area % | Comp. A just after dissolution [1, 8]: 99.0 area % | Comp. B after preservation for 6 hrs. 25° C. [1, 8]: 3.6 area % | Comp. B just after dissolution [1, 8]: 0.5 area % | Comp. C after preservation for 6 hrs. 25° C. [1, 8]: 0.0 area % | Comp. C just after dissolution [1, 8]: 0.0 area % | Comp. A after preservation for 6 hrs. 25° C. [1, 9]: 95.4 area % | Comp. A just after dissolution [1, 9]: 98.9 area % | Comp. B after preservation for 6 hrs. 25° C. [1, 9]: 3.8 area % | Comp. B just after dissolution [1, 9]: 0.5 area % | Comp. C after preservation for 6 hrs. 25° C. [1, 9]: 0.0 area % | Comp. C just after dissolution [1, 9]: 0.0 area % | Comp. A after preservation for 6 hrs. 25° C. [1, 10]: 95.1 area % | Comp. A just after dissolution [1, 10]: 99.0 area % | Comp. B after preservation for 6 hrs. 25° C. [1, 10]: 4.1 area % | Comp. B just after dissolution [1, 10]: 0.5 area % | Comp. C after preservation for 6 hrs. 25° C. [1, 10]: 0.0 area % | Comp. C just after dissolution [1, 10]: 0.0 area % | Comp. A after preservation for 6 hrs. 25° C. [1, 11]: 94.8 area % | Comp. A just after dissolution [1, 11]: 98.9 area % | Comp. B after preservation for 6 hrs. 25° C. [1, 11]: 4.5 area % | Comp. B just after dissolution [1, 11]: 0.6 area % | Comp. C after preservation for 6 hrs. 25° C. [1, 11]: 0.0 area % | Comp. C just after dissolution [1, 11]: 0.0 area % | reduction of amount of Compound A ([1]; sodium carbonate increased to 5 mg from 2 mg per Compound A 500 mg, 6 hours at 25° C.): 1.4% | change in absorbance, just after dissolution [2, 12]: 0.00 Abs | change in absorbance, preservation time 1 hr [2, 12]: 0.01 Abs | change in absorbance, preservation time 2 hr [2, 12]: 0.03 Abs | change in absorbance, preservation time 3 hr [2, 12]: 0.05 Abs | change in absorbance, preservation time 4 hr [2, 12]: 0.07 Abs | change in absorbance, preservation time 5 hr [2, 12]: 0.11 Abs | change in absorbance, preservation time 6 hr [2, 12]: 0.13 Abs | change in absorbance, just after dissolution [2, 13]: 0.00 Abs | change in absorbance, preservation time 1 hr [2, 13]: 0.00 Abs | change in absorbance, preservation time 2 hr [2, 13]: 0.00 Abs | change in absorbance, preservation time 3 hr [2, 13]: 0.01 Abs | change in absorbance, preservation time 4 hr [2, 13]: 0.02 Abs | change in absorbance, preservation time 5 hr [2, 13]: 0.03 Abs | change in absorbance, preservation time 6 hr [2, 13]: 0.04 Abs | change in absorbance, just after dissolution [2, 14]: 0.00 Abs | change in absorbance, preservation time 1 hr [2, 14]: 0.00 Abs | change in absorbance, preservation time 2 hr [2, 14]: 0.00 Abs | change in absorbance, preservation time 3 hr [2, 14]: 0.00 Abs | change in absorbance, preservation time 4 hr [2, 14]: 0.00 Abs | change in absorbance, preservation time 5 hr [2, 14]: 0.01 Abs | change in absorbance, preservation time 6 hr [2, 14]: 0.02 Abs | change in absorbance, just after dissolution [2, 15]: 0.00 Abs | change in absorbance, preservation time 1 hr [2, 15]: 0.00 Abs | change in absorbance, preservation time 2 hr [2, 15]: 0.00 Abs | change in absorbance, preservation time 3 hr [2, 15]: 0.00 Abs | change in absorbance, preservation time 4 hr [2, 15]: 0.00 Abs | change in absorbance, preservation time 5 hr [2, 15]: 0.00 Abs | change in absorbance, preservation time 6 hr [2, 15]: 0.01 Abs | change in absorbance, just after dissolution [2, 16]: 0.00 Abs | change in absorbance, preservation time 1 hr [2, 16]: 0.00 Abs | change in absorbance, preservation time 2 hr [2, 16]: 0.00 Abs | change in absorbance, preservation time 3 hr [2, 16]: 0.00 Abs | change in absorbance, preservation time 4 hr [2, 16]: 0.00 Abs | change in absorbance, preservation time 5 hr [2, 16]: 0.00 Abs | change in absorbance, preservation time 6 hr [2, 16]: 0.00 Abs | change in absorbance, just after dissolution [2, 17]: 0.00 Abs | change in absorbance, preservation time 1 hr [2, 17]: 0.00 Abs | change in absorbance, preservation time 2 hr [2, 17]: 0.00 Abs | change in absorbance, preservation time 3 hr [2, 17]: 0.00 Abs | change in absorbance, preservation time 4 hr [2, 17]: 0.00 Abs | change in absorbance, preservation time 5 hr [2, 17]: 0.00 Abs | change in absorbance, preservation time 6 hr [2, 17]: 0.00 Abs | suppression of coloration of the solution ([2]; at least 1.5 mg (0.003 part by weight) of sodium carbonate per 500 mg): observed
SMILES: C[C@H]1C=C(c2csc(SC3=C(C(=O)O)N4C(=O)[C@H]([C@@H](C)O)[C@H]4[C@H]3C)n2)CN1 [Compound A, (4R,5S,6S)-6-[(1R)-1-hydroxyethyl]-4-methyl-3-({4-[(5S)-5-methyl-2,5-dihydro-1H-pyrrol-3-yl]-1,3-thiazol-2-yl}sulfanyl)-7-oxo-1-azabicyclo[3.2.0]hept-2-ene-2-carboxylic acid]
coloration by the visual inspection compared with a solution just after dissolution ([2]; 1.5 mg additive per 500 mg (printed sodium bicarbonate; Table 15: sodium carbonate), 6 hours at 25° C.): coloration was not observed by the visual inspection
